Columns and labels:
[1] = test system: REF, 3.7, 4R, 5R and REF-GG cells; assay: Apoptosis determination after 10 Gray irradiation (propidium iodide); format: cell-based, rat
Description: (§1) 3×10^3 cells/well in 24-well plates were allowed to attach for 12 hours and were then treated with medium containing FTI-277 in DMSO or an equivalent volume of DMSO without inhibitor. Twenty four hours after irradiation with 10 Gray using the irradiator described above, both adherent and non-adherent cells were harvested. Cells were stained with propidium iodide (Muschel et al., 1995, Cancer Res. 55:995-998). A minimum of three independent fields of 100 cells were counted for each sample. Scoring of samples was performed in a double blind manner.

H-ras^v12 CVLL = assay: Western blot of prenylation of chimeric H-ras in REF-GG cells; format: cell-based, rat; conditions: up to 10 μM
Source text: The oncogene-transfected cells used in this study were all derived from early passage rat embryo fibroblast (REF) by transfection with the pEJ plasmid containing the H-ras gene isolated from the EJ bladder carcinoma. This vector was introduced by calcium phosphate DNA transfer into primary REF, either alone or together with the pMC29 vector containing v-myc. One clone containing both the introduced H-ras gene and the v-myc genes is 3.7 (McKenna et al., 1990, Cancer Res. 50:97-102). 4R and 5R cells were obtained as rare transformants after transfection with the pEJ plasmid alone (McKenna et al., 1993, supra). MR4 cells were immortalized by transfection with an expression vector comprising v-myc linked to a neomycin-resistant selectable marker (McKenna et al., 1991, Radiat. Res. 125:283-287). REF-GG cells were obtained by transforming REF cells with a chimeric H-ras(v12) in which the CAAX motif is CVLL. All cell lines were mycoplasma free.
Cells were lysed in culture dishes with 1 x reducing Laemmli sample buffer. Samples were boiled, sheared and clarified by centrifugation at 14,000 rpm in a microfuge before storage at −20° C. Samples containing equal amounts of protein were separated on a 12% SDS polyacrylamide gel and electrophoretically transferred to nitrocellulose membranes. […]

[2] = test system: T24 bladder carcinoma cells; assay: Colony formation / surviving fraction at 2 Gray in T24 cells; format: cell-based, human
Description: FIG. 16B is a graph depicting colony formation following FTI-277 treatment and irradiation of human T24 bladder carcinoma cells. Cells were treated for 24 hours with 5 μM of FTI-277 and were harvested and plated at the indicated cell density in medium containing DMSO (left panel) or 5 μM FTI-277 (right panel) and were immediately irradiated. Cultures were re-fed after 24 hours with medium that contained no inhibitor. […] The cells were allowed to grow for two weeks prior to scoring for colony formation. Open squares: unirradiated cells; closed circles: 2 Gray irradiated cells. The surviving fraction of cells was calculated as described in the description of FIG. 14B. The correlation coefficient for linear regression analysis (r^2) was greater than 0.95 in all cases.
In view of the fact that accumulation of unfarnesylated H-ras in T24 cells takes longer, these cells were pretreated for 24 hours prior to irradiation and subsequent assay for clonogenic survival. An additional consideration raised by pretreatment of cells is that FTI-277 and other farnesyltransferase inhibitors can affect the farnesylation of rho proteins involved in cell morphology and thus alter cell adherence. The pretreatment of T24 cells with FTI-277 reduced the ability of these cells to form discrete colonies after replating, resulting in the formation of secondary satellite colonies. […]

[3] = test system: mouse prostate tumor cells transformed with H-ras^v12 and myc; assay: Radiation induced apoptosis of mouse prostate tumor cells; format: cell-based; conditions: doses which inhibited ras farnesylation, 10 Gray
Description: FIG. 13B is a graph depicting the effects of the inhibitor, FTI-277, at the concentrations indicated (μM) on radiation induced apoptosis of prostate tumor cells. Cells were treated with FTI-277 for 24 hours before irradiation with 10 Gray. Apoptosis was quantitated 24 hours after irradiation by scoring for changes in nuclear morphology following staining of the cells with propidium iodide. Panel A depicts prostate tumor cells cultured from a primary tumor. Panel B depicts prostate tumor cells cultured from an isolated metastasis derived from the tumor.
as §1

[4] = test system: 5R, 3.7, MR4 and REF cells; assay: Radiation survival determination (clonogenic survival); format: cell-based, rat; conditions: for plating efficiency: unaffected by FTI-277
Description: FIG. 14A comprises a series of graphs depicting clonogenic survival of 5R, 3.7, MR4, and REF cells following treatment with FTI-277 and irradiation of the cells. Immediately prior to irradiation, FTI-277 was added at concentrations of 2.5 μM (3.7 cells) or 5 μM (5R, MR4 and REF cells). The inhibitor was diluted out of the culture medium 24 hours later resulting in a final concentration of inhibitor of 1 μM (3.7 cells) or 2 μM (5R, MR4 and REF). The plating efficiencies of MR4 and […] were unaffected by treatment with FTI-277, being 100% and 32-38%, respectively. FTI-277 reduced the plating efficiency of 3.7 and REF cells by 50% of untreated control values which were 75% and 5%, respectively. […] The data points shown represent the mean of the results obtained from at least three separate dishes of cells. The open symbols indicate the results obtained in untreated cells and the closed symbols are those results obtained in cells treated with FTI-277. In the panel labeled 3.7, the open triangles are the results obtained in untreated MR4 cells.
Cells obtained from log growth cultures were plated in 60-mm dishes and allowed to attach for 4 hours before addition of FTI-277 to the medium. The plating medium was then removed and fresh medium containing FTI-277 in DMSO or DMSO alone (for control dishes) was added immediately before irradiation. Cells were irradiated with a Mark I cesium irradiator (J. S. Shepherd, San Fernando, Calif.) at a dose rate of 1.7 Gray per minute. Colonies of cells were stained and counted 10-14 days after irradiation (McKenna et al., 1990, supra). The surviving fraction of cells at a given dose is defined as: [formula]
Each point on the survival curves represents the mean surviving fraction from at least three dishes of cells.

SMILES: COC(=O)[C@H](CCSC)NC(=O)c1ccc(NC[C@@H](N)CS)cc1-c1ccccc1 [FTI-277]
- inhibitor concentration of maximum effect on apoptosis ([1]; 3.7 cells, 10 Gray): 5 µM
- apoptosis after irradiation ([1]; 3.7 cells, 10 Gray, 2.5 μM): significant increase
- extent of apoptosis induced by irradiation ([1]; 3.7 cells, 10 Gray, 24 hours): greatly enhanced
- irradiation-induced apoptosis ([1]; 4R and 5R cells, 10 Gray): augment irradiation-induced apoptosis
- toxicity of the inhibitor ([1]; 48 hours, highest doses, 3.7 cells only): some toxicity
- extent of apoptosis after irradiation ([1]; REF-GG cells): no significant effect
- baseline level of apoptosis ([1]; REF-GG cells, unirradiated): slightly increased
- apoptosis after irradiation ([1]; untransformed REF cells, 10 Gray): did not result in an increase in apoptosis
- mobility of H-ras-CVLL (H-ras^v12 CVLL): no change in the mobility of H-ras-CVLL
- surviving fraction at 2 Gray irradiation ([2]; 5 μM, 24 hours pretreatment): 0.35
- colony formation without irradiation ([2]; FTI-277 treatment alone): did not significantly reduce the fraction of wells giving rise to colonies
- radiation-induced apoptosis [3]: significant increase in apoptosis
- radioresistance (survival curves) ([4]; 3.7 (2.5 μM) and 5R (5 μM) cells, 24 hours after irradiation): reduced to a level of survival which was similar to that seen in MR4 cells
- reduction of plating efficiency, of untreated control values ([4]; 3.7 and REF cells): 50%
- plating efficiency ([4]; 5R cells): 32-38%
- plating efficiency ([4]; MR4 cells): 100%
- radiation survival ([4]; MR4 or REF cells, 5 μM): no effect on radiation survival

From US20020034725A1, “SENSITIZATION OF CELLS TO RADIATION AND AND CHEMOTHERAPY” (priority 1996, published 2002)
